Where a name gives a salt, the structure may show the parent alone.

Assay [1] relates to E. coli (ATCC25922). The experiment in a line: MIC against E. coli. The following applies: Escherichia coli, ATCC25922, read-out: E. coli MIC (ATCC25922) (mg/L).
For assay [2], the target named is T1, P. aeruginosa PBP2 (Pseudomonas aeruginosa, UniProt Q9X6V3).
T1 sequence (Q9X6V3 1-646): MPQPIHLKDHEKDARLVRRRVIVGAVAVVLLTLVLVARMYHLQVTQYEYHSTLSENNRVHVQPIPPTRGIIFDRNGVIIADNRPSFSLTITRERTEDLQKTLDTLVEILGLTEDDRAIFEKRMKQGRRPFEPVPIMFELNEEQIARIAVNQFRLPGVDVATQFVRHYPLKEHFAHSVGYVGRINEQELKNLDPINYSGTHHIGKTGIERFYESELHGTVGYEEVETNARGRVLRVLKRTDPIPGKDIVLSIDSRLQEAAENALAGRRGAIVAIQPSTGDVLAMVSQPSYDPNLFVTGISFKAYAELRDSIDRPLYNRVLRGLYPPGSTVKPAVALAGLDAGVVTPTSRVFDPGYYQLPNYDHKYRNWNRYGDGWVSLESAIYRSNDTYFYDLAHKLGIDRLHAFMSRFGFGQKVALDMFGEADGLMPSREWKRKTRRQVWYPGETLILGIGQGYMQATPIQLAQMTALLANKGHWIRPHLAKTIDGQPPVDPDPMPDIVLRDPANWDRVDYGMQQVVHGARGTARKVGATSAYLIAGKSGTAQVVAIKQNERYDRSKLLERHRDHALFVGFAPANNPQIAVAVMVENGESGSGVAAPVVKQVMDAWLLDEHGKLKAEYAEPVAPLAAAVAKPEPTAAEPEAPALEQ
Format: biochemical. The following applies: P. aeruginosa PBP2 300 nM, BOCILLIN FL 30 nM, pH 6.2.

In assay [3] the test system is K. pneumoniae (ATCC700603). The experiment in a line: MIC against K. pneumoniae. The settings on record: Klebsiella pneumoniae, ATCC700603, read-out: K. pneumoniae MIC (ATCC700603).
In assay [4] the target is P. aeruginosa PBP3 (Pseudomonas aeruginosa, UniProt G3XD46). Format: biochemical. The settings on record: P. aeruginosa PBP3 60 nM, BOCILLIN FL 30 nM, pH 7.0.
Chain of P. aeruginosa PBP3 (G3XD46 whole entry): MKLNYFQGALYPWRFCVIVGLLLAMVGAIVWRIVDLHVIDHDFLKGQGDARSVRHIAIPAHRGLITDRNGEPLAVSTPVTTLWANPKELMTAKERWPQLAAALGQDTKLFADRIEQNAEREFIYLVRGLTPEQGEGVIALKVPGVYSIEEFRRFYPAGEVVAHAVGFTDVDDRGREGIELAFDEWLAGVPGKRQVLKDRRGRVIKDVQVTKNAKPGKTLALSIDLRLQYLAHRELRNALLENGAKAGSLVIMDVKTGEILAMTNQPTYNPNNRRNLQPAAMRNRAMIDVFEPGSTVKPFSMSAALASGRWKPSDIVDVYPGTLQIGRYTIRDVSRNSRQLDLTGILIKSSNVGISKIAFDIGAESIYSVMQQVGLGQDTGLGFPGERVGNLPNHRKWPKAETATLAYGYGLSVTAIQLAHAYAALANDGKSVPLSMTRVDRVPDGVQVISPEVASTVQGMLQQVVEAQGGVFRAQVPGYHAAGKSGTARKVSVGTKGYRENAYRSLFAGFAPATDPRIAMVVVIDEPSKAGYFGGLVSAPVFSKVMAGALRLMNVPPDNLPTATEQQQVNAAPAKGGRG
For assay [5], the system named is P. aeruginosa WT (PAO1). The experiment in a line: MIC, CLSI broth microdilution, P. aeruginosa. Type of assay: cell-based. The settings on record: Pseudomonas aeruginosa, PAO1; CLSI broth microdilution; read-out: P. aeruginosa WT (PAO1) MIC.
For assay [6], the target named is P. aeruginosa PBP1a (Pseudomonas aeruginosa, UniProt Q07806). Format: biochemical. The following applies: P. aeruginosa PBP1a 60 nM, BOCILLIN FL 30 nM, pH 7.0.
Chain of P. aeruginosa PBP1a (Q07806 whole entry): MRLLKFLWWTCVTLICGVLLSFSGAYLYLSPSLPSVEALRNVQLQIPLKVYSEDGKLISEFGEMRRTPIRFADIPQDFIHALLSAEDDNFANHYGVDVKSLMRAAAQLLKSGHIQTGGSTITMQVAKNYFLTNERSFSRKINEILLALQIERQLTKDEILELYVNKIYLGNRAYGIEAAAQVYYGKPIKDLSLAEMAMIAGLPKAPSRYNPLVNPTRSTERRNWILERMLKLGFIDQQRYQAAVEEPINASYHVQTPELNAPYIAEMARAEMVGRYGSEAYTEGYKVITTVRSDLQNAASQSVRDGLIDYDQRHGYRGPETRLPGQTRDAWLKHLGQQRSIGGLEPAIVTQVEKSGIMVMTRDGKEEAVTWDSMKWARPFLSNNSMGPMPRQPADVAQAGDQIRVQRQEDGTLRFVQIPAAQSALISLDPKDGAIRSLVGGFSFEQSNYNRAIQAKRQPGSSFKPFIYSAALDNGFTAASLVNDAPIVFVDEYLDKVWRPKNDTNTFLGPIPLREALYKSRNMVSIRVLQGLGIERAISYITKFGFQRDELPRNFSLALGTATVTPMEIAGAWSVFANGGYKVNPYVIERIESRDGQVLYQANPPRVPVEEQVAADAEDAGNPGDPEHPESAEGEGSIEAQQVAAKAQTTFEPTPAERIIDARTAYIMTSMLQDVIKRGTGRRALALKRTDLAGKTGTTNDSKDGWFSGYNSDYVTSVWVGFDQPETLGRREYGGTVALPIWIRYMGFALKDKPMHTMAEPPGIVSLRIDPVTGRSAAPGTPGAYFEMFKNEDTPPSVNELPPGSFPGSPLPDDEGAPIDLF
The subject of assay [7] is A. baumannii (ARC3495). The experiment in a line: MIC against A. baumannii. The settings on record: Acinetobacter baumannii, read-out: A. baumannii MIC (ARC3495) (mg/L).
The subject of assay [8] is B. anthracis. In words: microbe, parasite or virus in culture. The settings on record: Bacillus anthracis, read-out: MIC against B. anthracis.
Assay [9] relates to B. mallei. In words: microbe, parasite or virus in culture. The settings on record: Burkholderia mallei, read-out: MIC against B. mallei.
The subject of assay [10] is Y. pestis. In words: microbe, parasite or virus in culture. The settings on record: Yersinia pestis, read-out: MIC against Y. pestis.
Assay [11] relates to B. pseudomallei. The experiment in a line: microbe, parasite or virus in culture. The settings on record: Burkholderia pseudomallei, read-out: MIC against B. pseudomallei.
The test system of assay [12] is F. tularensis. In words: microbe, parasite or virus in culture. The settings on record: Francisella tularensis, read-out: MIC against F. tularensis.

In the case of `Cn1ncc2c1[C@@H](C1=NOC(CO)C1)N1C[C@@H]2N(OS(=O)(=O)O)C1=O` (stereo partly drawn) [Example 38, (4R,8S)-8-(5-(hydroxymethyl)-4,5-dihydroisoxazol-3-yl)-1-methyl-6-oxo-4,8-dihydro-1H-4,7-methanopyrazolo[3,4-e][1,3]diazepin-5(6H)-yl hydrogen sulfate], the MIC in assay [1] is 8 to 16 mg/L; in assay [3], more than 16 µg/mL; in assay [5] it was more than 16 µg/mL; in assay [7], more than 16 mg/L. The “PBP2 acylation rate, k(on) (M^−1 · s^−1)” value in assay [2] is on record as “* (* represents a k(on) < 100 M^−1 · s^−1)”. For the same compound, the “PBP3 acylation rate, k(on) (M^−1 · s^−1)” value in assay [4] is listed as “* (* represents a k(on) < 100 M^−1 · s^−1)”. Moreover, the “PBP1a acylation rate, k(on) (M^−1 · s^−1)” value (from here on “PBP1a acylation rate”) in assay [6] is recorded as “* (* represents a k(on) < 100 M^−1 · s^−1)”.

Consider `CN(N)/C(=N\OS(=O)(=O)O)[C@@H]1c2c(cnn2C)[C@@H]2CN1C(=O)N2OS(=O)(=O)O` [Example 72, ((((Z)-((4R,8S)-1-methyl-6-oxo-5-(sulfooxy)-4,5,6,8-tetrahydro-1H-4,7-methanopyrazolo[3,4-e][1,3]diazepin-8-yl)(1-methylhydrazineyl)methylene)amino)oxy)sulfonic acid], for which the MIC in assay [1] was less than 8 mg/L; in assay [3] it was more than 16 µg/mL; in assay [5], more than 16 µg/mL; in assay [7], more than 16 mg/L. The “PBP2 acylation rate, k(on) (M^−1 · s^−1)” value in assay [2] was “* (* represents a k(on) < 100 M^−1 · s^−1)”. The “PBP3 acylation rate, k(on) (M^−1 · s^−1)” value in assay [4] is given as “*** (*** represents a k(on) > 10,000 M^−1 · s^−1)”. Besides, the “PBP1a acylation rate” value in [6] is given as “** (** represents a k(on) of 100 to 10,000 M^−1 · s^−1)”.

Consider `CN/C(=N\O)[C@@H]1c2c(cnn2CCN)[C@@H]2CN1C(=O)N2OS(=O)(=O)O` [Example 47, (4R,8S)-1-(2-aminoethyl)-8-((Z)—N′-hydroxy-N-methylcarbamimidoyl)-6-oxo-4,8-dihydro-1H-4,7-methanopyrazolo[3,4-e][1,3]diazepin-5(6H)-yl hydrogen sulfate], for which the MIC is less than 8 mg/L in [1], less than 8 µg/mL in [3], less than 8 µg/mL in assay [5] and less than 8 mg/L in assay [7]. Moreover, the “PBP2 acylation rate, k(on) (M^−1 · s^−1)” value in [2] was “* (* represents a k(on) < 100 M^−1 · s^−1)”. Also, the “PBP3 acylation rate, k(on) (M^−1 · s^−1)” value in assay [4] is reported as “*** (*** represents a k(on) > 10,000 M^−1 · s^−1)”. Moreover, in assay [6], the “PBP1a acylation rate” value was “** (** represents a k(on) of 100 to 10,000 M^−1 · s^−1)”.

For the compound `C/C(=N\O)[C@@H]1c2c(cnn2C)[C@@H]2CN1C(=O)N2OS(=O)(=O)O` [Example 71, (4R,8S)-8-((E)-1-(hydroxyimino)ethyl)-1-methyl-6-oxo-4,8-dihydro-1H-4,7-methanopyrazolo[3,4-e][1,3]diazepin-5(6H)-yl hydrogen sulfate], the MIC in assay [1] was 8 to 16 mg/L; in [3], more than 16 µg/mL; in [5] it was 8 to 16 µg/mL; in [7] it was more than 16 mg/L. In addition, the “PBP2 acylation rate, k(on) (M^−1 · s^−1)” value in [2] is reported as “* (* represents a k(on) < 100 M^−1 · s^−1)”. For the same compound, the “PBP3 acylation rate, k(on) (M^−1 · s^−1)” value in assay [4] was “** (** represents a k(on) of 100 to 10,000 M^−1 · s^−1)”. Further, the “PBP1a acylation rate” value in assay [6] is listed as “* (* represents a k(on) < 100 M^−1 · s^−1)”.

In the case of `Cn1ncc2c1[C@@H](/C(=N/OC(=O)NC(C)(C)C(=O)O)NCc1nc(N)cs1)N1C[C@@H]2N(OS(=O)(=O)O)C1=O` [Example 52, (Z)-1-(4-aminothiazol-2-yl)-8,8-dimethyl-3-((4R,8S)-1-methyl-6-oxo-5-(sulfooxy)-4,5,6,8-tetrahydro-1H-4,7-methanopyrazolo[3,4-e][1,3]diazepin-8-yl)-6-oxo-5-oxa-2,4,7-triazanon-3-en-9-oic acid], the MIC in [1] is less than 8 mg/L; in [3] it was more than 16 µg/mL; in [5] it was more than 16 µg/mL; in assay [7] it was more than 16 mg/L. In addition, the “PBP2 acylation rate, k(on) (M^−1 · s^−1)” value in assay [2] was “* (* represents a k(on) < 100 M^−1 · s^−1)”. The “PBP3 acylation rate, k(on) (M^−1 · s^−1)” value in assay [4] was “** (** represents a k(on) of 100 to 10,000 M^−1 · s^−1)”. In addition, the “PBP1a acylation rate” value in assay [6] is “** (** represents a k(on) of 100 to 10,000 M^−1 · s^−1)”.

Regarding `Cn1ncc2c1[C@@H](/C(N)=N/O)N1C[C@@H]2N(OS(=O)(=O)[O-])C1=O.[Na+]` [Example 3, Sodium (4R,8S)-8-((Z)—N′-hydroxycarbamimidoyl)-1-methyl-6-oxo-4,8-dihydro-1H-4,7-methanopyrazolo[3,4-e][1,3]diazepin-5(6H)-yl sulfate], the MIC is less than 8 mg/L in assay [1], less than 8 µg/mL in assay [3], more than 16 µg/mL in assay [5] and more than 16 mg/L in assay [7]. The “PBP2 acylation rate, k(on) (M^−1 · s^−1)” value in assay [2] is given as “* (* represents a k(on) < 100 M^−1 · s^−1)”. Moreover, in assay [4], the “PBP3 acylation rate, k(on) (M^−1 · s^−1)” value is on record as “** (** represents a k(on) of 100 to 10,000 M^−1 · s^−1)”. The “PBP1a acylation rate” value in assay [6] is “* (* represents a k(on) < 100 M^−1 · s^−1)”.

In the case of `CN/C(=N\O)[C@@H]1c2c(cnn2C)[C@@H]2CN1C(=O)N2OS(=O)(=O)O` (stereo in doubt) [Example 40, Sodium (4R*,8S*)-8-((Z)—N′-hydroxy-N-methylcarbamimidoyl)-1-methyl-6-oxo-4,8-dihydro-1H-4,7-methanopyrazolo[3,4-e][1,3]diazepin-5(6H)-yl hydrogen sulfate], the MIC in assay [8] is less than 4 µg/mL; in assay [1], less than 8 mg/L; in assay [9], less than 4 µg/mL; in [3] it was less than 8 µg/mL; in [10], less than 4 µg/mL; in assay [11] it was less than 4 µg/mL. Besides, the figures for the MIC in [5], in [7] and in assay [12] were less than 8 µg/mL, less than 8 mg/L and less than 4 µg/mL, respectively. Also, the “PBP2 acylation rate, k(on) (M^−1 · s^−1)” value in assay [2] was “* (* represents a k(on) < 100 M^−1 · s^−1)”. The “PBP3 acylation rate, k(on) (M^−1 · s^−1)” value in assay [4] is “*** (*** represents a k(on) > 10,000 M^−1 · s^−1)”. For the same compound, the “PBP1a acylation rate” value in assay [6] is “** (** represents a k(on) of 100 to 10,000 M^−1 · s^−1)”.

On to `Cn1ncc2c1[C@@H](CN)N1C[C@@H]2N(OS(=O)(=O)O)C1=O` [Comparator 1, reference compound], for which the MIC is less than 8 mg/L in assay [1], less than 8 µg/mL in [3], less than 8 µg/mL in assay [5] and more than 16 mg/L in [7]. Moreover, the “PBP2 acylation rate, k(on) (M^−1 · s^−1)” value in assay [2] is “*** (*** represents a k(on) > 5,000 M^−1 · s^−1)”. In addition, the “PBP3 acylation rate, k(on) (M^−1 · s^−1)” value in assay [4] is on record as “* (* represents a k(on) < 100 M^−1 · s^−1)”. In [6], the “PBP1a acylation rate” value is reported as “* (* represents a k(on) < 100 M^−1 · s^−1)”.

Take `Cn1ncc2c1[C@@H](C1=NOC(C(=O)O)C1)N1C[C@@H]2N(OS(=O)(=O)O)C1=O` (mixture of isomers) [Example 35, 3-((4R,8S)-1-methyl-6-oxo-5-(sulfooxy)-4,5,6,8-tetrahydro-1H-4,7-methanopyrazolo[3,4-e][1,3]diazepin-8-yl)-4,5-dihydroisoxazole-5-carboxylic acid]: the MIC in assay [1] is less than 8 mg/L; in [3], more than 16 µg/mL; in assay [5], more than 16 µg/mL; in [7] it was more than 16 mg/L. Besides, the “PBP2 acylation rate, k(on) (M^−1 · s^−1)” value in assay [2] is recorded as “* (* represents a k(on) < 100 M^−1 · s^−1)”. Further, the “PBP3 acylation rate, k(on) (M^−1 · s^−1)” value in assay [4] is on record as “** (** represents a k(on) of 100 to 10,000 M^−1 · s^−1)”. Also, in assay [6], the “PBP1a acylation rate” value was “* (* represents a k(on) < 100 M^−1 · s^−1)”.

In the case of `CC1C([C@@H]2c3c(cnn3C)[C@@H]3CN2C(=O)N3OS(=O)(=O)O)=NOC1CO` (mixture of isomers) [Example 39, Pyridium (4R,8S)-8-(5-(hydroxymethyl)-4-methyl-4,5-dihydroisoxazol-3-yl)-1-methyl-6-oxo-4,8-dihydro-1H-4,7-methanopyrazolo[3,4-e][1,3]diazepin-5(6H)-yl hydrogen sulfate], the MIC in assay [1] was less than 8 mg/L; in assay [3], more than 16 µg/mL; in assay [5] it was more than 16 µg/mL; in [7], more than 16 mg/L. Besides, the “PBP2 acylation rate, k(on) (M^−1 · s^−1)” value in assay [2] was “* (* represents a k(on) < 100 M^−1 · s^−1)”. The “PBP3 acylation rate, k(on) (M^−1 · s^−1)” value in assay [4] is “** (** represents a k(on) of 100 to 10,000 M^−1 · s^−1)”. In addition, in [6], the “PBP1a acylation rate” value was “* (* represents a k(on) < 100 M^−1 · s^−1)”.

These data come from patent US11046694B2, “Compounds and methods for treating bacterial infections” (Entasis Therapeutics, Inc., priority 2018, dated 2021).
